Data published in patent publication US20090143279A1 (priority 2007, published 2009).
Values joined by “and” are separate entries in the source; they are usually repeats but may differ in a detail not shown here. Identical values can stand only once. Like-named read-outs stand apart in the source and are kept apart here.

What was measured:
mtOXPHOS transcripts = type: cell-based, mouse
cytochrome c = type: cell-based, mouse
[1] = system: cellular dehydrogenase activity
nuOXPHOS transcripts = type: cell-based, mouse
reactive oxygen species = type: cell-based, mouse
[2] = system: mitochondrial membrane potential; type: cell-based, mouse
OXPHOS gene expression = type: cell-based, mouse
[3] = Table 7, C2C12 myotubes, 48 h, composite Z-score
[4] = normalized composite Z-score vs mock-treated (DMSO) wells, Conc 20 μM
[5] = 20 μM, composite Z-score vs DMSO
[6] = Table 3, differentiated C2C12 myotubes, 48 h treatment, composite Z-score vs DMSO
[7] = retest at 20 nM to 20 μM, FIG. 6a
[8] = Table 6, C2C12 myotubes, 48 h, composite Z-score
[9] = composite Z-score vs DMSO, Conc 20 μM

C[C@]12CCC(=O)C[C@@H]1CC[C@@H]1[C@@H]2CC[C@]2(C)C(=O)CC[C@@H]12 [5alpha-androstan-3,17-dione]
mitoOX (mtOXPHOS transcripts): −0.509
cyt c (cytochrome c): 0.048
Viability (C2C12 myotubes): −0.579
MTT [1]: −0.601
nucOX (nuOXPHOS transcripts): −0.426
ROS (reactive oxygen species): 0.649
ΔΨm [2]: 0.107

O=C1C(Cl)=C(Cl)C(=O)C(Cl)=C1Cl [Chloranil, reference compound]
mito-OXPHOS Z (mtOXPHOS transcripts; [3]): 2.50
nucOXPHOS Z (nuOXPHOS transcripts; [3]): −2.45

COc1cc2c(c(OC)c1OC)-c1ccc(OC)c(=O)cc1[C@@H](NC(C)=O)CC2 [Colchicine, reference compound]
OXPHOS expression (OXPHOS gene expression): modest increase
nucOX (nuOXPHOS transcripts): 0.807 and 1.549
ROS levels (reactive oxygen species): did not display the same decrease in ROS levels

CO[C@H]1C=C[C@@]23c4cc5c(cc4CN(C[C@@H]2O)[C@H]3C1)OCO5 [Crinamine, reference compound]
mito-OXPHOS Z (mtOXPHOS transcripts; [3]): −2.89
nucOXPHOS Z (nuOXPHOS transcripts; [3]): 2.27

CCN(CC)C(=S)SSC(=S)N(CC)CC [Disulfiram, reference compound]
mito-OXPHOS Z (mtOXPHOS transcripts; [3]): 0.93
nucOXPHOS Z (nuOXPHOS transcripts; [3]): −4.10

COc1cccc2c1C(=O)c1c(O)c3c(c(O)c1C2=O)C[C@@](O)(C(=O)CO)C[C@@H]3O[C@H]1C[C@H](N)[C@H](O)[C@H](C)O1 [Doxorubicin, reference compound]
mito-OXPHOS Z (mtOXPHOS transcripts; [3]): 2.57
nucOXPHOS Z (nuOXPHOS transcripts; [3]): −1.85

CC[C@H]1CN2CCc3cc(OC)c(OC)cc3[C@@H]2C[C@@H]1C[C@H]1NCCc2cc(OC)c(OC)cc21 [Emetine, reference compound]
cyt c (cytochrome c): −1.644
cyt c (composite Z-score) (cytochrome c): −0.191
nuOXPHOS expression (nuOXPHOS transcripts): preferentially increase

O=c1[nH]cc(F)c(=O)[nH]1 [Fluorouracil, reference compound]
mito-OXPHOS Z (mtOXPHOS transcripts; [3]): 1.55
nucOXPHOS Z (nuOXPHOS transcripts; [3]): 1.50

COc1ccc2c(c1)c(CC(=O)O)c(C)n2C(=O)c1ccc(Cl)cc1 [Indomethacin, reference compound]
mito-OXPHOS Z (mtOXPHOS transcripts; [3]): 2.40
nucOXPHOS Z (nuOXPHOS transcripts; [3]): 1.32

CC1=CC(=O)c2ccccc2C1=O [Menadione, reference compound]
mito-OXPHOS Z (mtOXPHOS transcripts; [3]): 2.13
nucOXPHOS Z (nuOXPHOS transcripts; [3]): −3.40

Nc1cc(N2CCCCC2)nc(N)[n+]1[O-] [Minoxidil, reference compound]
mito-OXPHOS Z (mtOXPHOS transcripts; [3]): 1.37
nucOXPHOS Z (nuOXPHOS transcripts; [3]): 2.38

CN(C)C(=O)Oc1cccc([N+](C)(C)C)c1 [Neostigmine, reference compound]
mito-OXPHOS Z (mtOXPHOS transcripts; [3]): −3.45
nucOXPHOS Z (nuOXPHOS transcripts; [3]): −3.54

N=C1C=CC(=C(c2ccc(N)cc2)c2ccc(N)cc2)C=C1 [Pararosaniline, reference compound]
mito-OXPHOS Z (mtOXPHOS transcripts; [3]): −5.43
nucOXPHOS Z (nuOXPHOS transcripts; [3]): −2.25

OCCN1CCN(CCCN2c3ccccc3Sc3ccc(Cl)cc32)CC1 [Perphenazine, reference compound]
decline of nuOXPHOS expression (nuOXPHOS transcripts; 20 μM, within the first hour of treatment): 21%

CC[C@@]1(O)C[C@H](O[C@H]2C[C@H](N(C)C)[C@H](O)[C@H](C)O2)c2c(cc3c(c2O)C(=O)c2c(O)ccc(O)c2C3=O)[C@H]1C(=O)OC [Pyrromycin, reference compound]
mito-OXPHOS Z (mtOXPHOS transcripts; [3]): −2.67
nucOXPHOS Z (nuOXPHOS transcripts; [3]): −2.89

CCN(CC)CCCC(C)Nc1c2ccc(Cl)cc2nc2ccc(OC)cc12 (centres unmarked) [Quinacrine, reference compound]
mito-OXPHOS Z (mtOXPHOS transcripts; [3]): −2.81
nucOXPHOS Z (nuOXPHOS transcripts; [3]): −2.65

CC(C)[C@]12O[C@H]1[C@@H]1O[C@@]13[C@@]1(C)CCC4=C(COC4=O)[C@@H]1C[C@@H]1O[C@@]13C2=O [Triptonide, reference compound]
mito-OXPHOS Z (mtOXPHOS transcripts; [3]): 5.02
nucOXPHOS Z (nuOXPHOS transcripts; [3]): −2.18

CC(=O)Nc1ccc(O)cc1 [acetaminophen]
mitoOX (mtOXPHOS transcripts): 0.317
ROS (reactive oxygen species): 0.527

CCCSc1ccc2nc(NC(=O)OC)[nH]c2c1 [albendazole, reference compound]
cyt c (cytochrome c): −0.280
GEHTS_Zscore (OXPHOS gene expression): 2.379
ROS Zscore (reactive oxygen species): −1.434

C=C(C)[C@@H]1CC[C@]2(CO)CC[C@]3(C)[C@H](CC[C@@H]4[C@@]5(C)CC[C@H](O)C(C)(C)[C@@H]5CC[C@]43C)[C@@H]12 [betulin]
nucOX (nuOXPHOS transcripts): 0.598

CCCCCCCCCCCCCCCC[N+](C)(C)C.[Br-] [cetrimonium bromide, reference compound]
mito-OXPHOS Z (mtOXPHOS transcripts; [3]): 1.66
nucOXPHOS Z (nuOXPHOS transcripts; [3]): −2.70

O=c1cccc2n1C[C@@H]1CNC[C@H]2C1 [cytisine]
cyt c (cytochrome c): 0.186 and 0.095
GE-HTS (OXPHOS gene expression): 0.025
ROS (reactive oxygen species): 1.150

CC(C)=CCC[C@]1(C)C=Cc2c(O)c3c(c(CC=C(C)C)c2O1)O[C@]12C(=C[C@@H]4CC1C(C)(C)O[C@@]2(C/C=C(/C)C(N)=O)C4=O)C3=O [gambogic acid amide, reference compound]
mito-OXPHOS Z (mtOXPHOS transcripts; [3]): −2.68
nucOXPHOS Z (nuOXPHOS transcripts; [3]): −4.01

O=C1C[C@@H](c2ccc(O)cc2)Oc2cc(O)ccc21 [liquiritigenin]
mitoOX (mtOXPHOS transcripts; [4]): −1.069
cyt c (cytochrome c; [4]): 0.523
Viability (C2C12 myotubes; [4]): 1.353
GE-HTS (OXPHOS gene expression; [4]): −0.749
MTT [1, 4]: −0.429
ROS (reactive oxygen species; [4]): 0.301
ΔΨm [2, 4]: 1.004

CCOC(=O)N1CCC(=C2c3ccc(Cl)cc3CCc3cccnc32)CC1 [loratadine]
cyt c (cytochrome c): −0.317
Viability (C2C12 myotubes): 0.552
GE-HTS (OXPHOS gene expression): −0.306
MTT [1]: −1.609
ROS (reactive oxygen species): 0.764
ΔΨm [2]: 0.191

CC[C@@]1([C@@H]2O[C@@H]([C@H]3O[C@@](O)(CO)[C@H](C)C[C@@H]3C)C[C@@H]2C)CC[C@H]([C@]2(C)CC[C@]3(C[C@H](O)[C@@H](C)[C@@H]([C@@H](C)[C@@H](OC)[C@H](C)C(=O)O)O3)O2)O1 [monensin, reference compound]
mito-OXPHOS Z (mtOXPHOS transcripts; [3]): −4.13
nucOXPHOS Z (nuOXPHOS transcripts; [3]): 0.70

CC(=O)CCCCn1c(=O)c2c(ncn2C)n(C)c1=O [pentoxifylline]
cyt c (cytochrome c; [5]): −0.798
Viability (C2C12 myotubes; [5]): 0.375
GE-HTS (OXPHOS gene expression; [5]): 0.062
MTT [1, 5]: −0.600
nucOX (nuOXPHOS transcripts; [5]): 0.292
ROS (reactive oxygen species; [5]): 0.182
ΔΨm [2, 5]: −0.696

COc1cc([C@@H]2c3cc4c(cc3[C@H](O)[C@H]3COC(=O)[C@H]23)OCO4)cc(OC)c1OC [podofilox, reference compound]
mito-OXPHOS Z (mtOXPHOS transcripts; [3]): 1.28
GEHTS_Zscore (OXPHOS gene expression; [6]): 3.408
OXPHOS expression (OXPHOS gene expression; primary screen, in words): boost OXPHOS expression
dose at which OXPHOS expression increased (OXPHOS gene expression; [7]): 2 µM
nucOXPHOS Z (nuOXPHOS transcripts; [3]): 2.53
ROS Zscore (reactive oxygen species; [6]): −1.436
ROS levels (reactive oxygen species; primary screen, in words): suppressing ROS levels
dose at which ROS levels decreased (reactive oxygen species; [7]): 2 µM

COc1ccc2c(c1)OCC(=Cc1ccc(O)c(O)c1)C2=O [sappanone (A) 7-methyl ether, reference compound]
GEHTS_Zscore (OXPHOS gene expression; [8]): 1.410
ROS Zscore (reactive oxygen species; [8]): −1.493

COc1ccc2c(c1)OC/C(=C/c1ccc(OC)c(OC)c1)C2=O [sappanone (A) trimethyl ether, reference compound]
GEHTS_Zscore (OXPHOS gene expression; [8]): 2.376
ROS Zscore (reactive oxygen species; [8]): 0.1195

COc1ccc2c(c1)OC[C@@H](Cc1ccc(OC)c(OC)c1)[C@H]2O [tetrahydrosappanone (A) trimethyl ether, reference compound]
GEHTS_Zscore (OXPHOS gene expression; [8]): 0.583
ROS Zscore (reactive oxygen species; [8]): 0.274

CN(C)CCCN1c2ccccc2Sc2ccc(C(F)(F)F)cc21 [triflupromazine]
GE-HTS (OXPHOS gene expression): 0.225
nucOX (nuOXPHOS transcripts): 0.404
ROS (reactive oxygen species): 1.208

Thimerosal [reference compound]
mito-OXPHOS Z (mtOXPHOS transcripts): 10.41
Viability (C2C12 myotubes): −5.590
MTT [1]: −6.206
nucOXPHOS Z (nuOXPHOS transcripts): −1.20
ROS (reactive oxygen species): −3.880
ΔΨm [2]: −3.315

dimenhydrinate
GE-HTS (OXPHOS gene expression; [9]): −0.225
MTT [1, 9]: −1.505
nucOX (nuOXPHOS transcripts; [9]): −0.086
ROS (reactive oxygen species; [9]): 0.339
ΔΨm [2, 9]: −0.890

podophyllotoxin acetate [reference compound]
GEHTS_Zscore (OXPHOS gene expression; [6]): 3.506
ROS Zscore (reactive oxygen species; [6]): −1.656

sappanone (A) dimethyl ether [reference compound]
GEHTS_Zscore (OXPHOS gene expression; [8]): 0.524
ROS Zscore (reactive oxygen species; [8]): −2.429
